Assay results as given in US20100264359A1, “BIOCIDAL MIXTURES” (LANXESS DEUTSCHLAND GMBH, priority 2007, published 2010).

Legend:
[1] = system: Yeasts; experiment: Preservation of a cooling lubricant emulsion, repeated weekly contamination with yeasts; format: cell-based, Rhodotorula rubra; details: maximum of 10 weeks; for Number of weeks in which the growth of microorganisms lay beneath the limiting values (yeasts <10^3-4 CFU/g): 0.05% (=500 ppm) BIT in cooling lubricant emulsion; for Number of weeks in which the growth of microorganisms remained below the limiting values (yeasts <10^3-4 CFU/g): 0.18% (=1800 ppm) OPP in cooling lubricant emulsion
Method: (§1) For this purpose, preserved samples of the cooling lubricant emulsion were repeatedly exposed in a weekly cycle to microbiological contamination with the following microorganisms:
(§2) The bacteria mixture was added in each case separately from the yeasts/molds. The maximum experimental time was 10 weeks (=10 contaminations/inoculation cycles), provided that the weekly cell count determination (in each case 7 days after the contamination) was kept within the following limiting values:
(§3) bacteria <10^6 CFU/g yeasts/molds <10^3-4 CFU/g
(§4) The experiment was terminated when said values were exceeded twice in succession.

[2] = system: Molds; experiment: Preservation of a cooling lubricant emulsion, repeated weekly contamination with molds; format: cell-based, Acremonium strictum, Fusarium solani, Geotrichum candidum; details: maximum of 10 weeks; for Number of weeks in which the growth of microorganisms lay beneath the limiting values (molds <10^3-4 CFU/g): 0.05% (=500 ppm) BIT in cooling lubricant emulsion; for Number of weeks in which the growth of microorganisms remained below the limiting values (molds <10^3-4 CFU/g): 0.18% (=1800 ppm) OPP in cooling lubricant emulsion
Method: as §1, §2, §3, §4

[3] = system: Bacteria; experiment: Preservation of a cooling lubricant emulsion, repeated weekly contamination with bacteria mixture; format: cell-based; details: maximum of 10 weeks; for Number of weeks in which the growth of microorganisms lay beneath the limiting values (bacteria <10^6 CFU/g): 0.05% (=500 ppm) BIT in cooling lubricant emulsion; for Number of weeks in which the growth of microorganisms remained below the limiting values (bacteria <10^6 CFU/g): 0.18% (=1800 ppm) OPP in cooling lubricant emulsion
Method: as §1, §2, §3, §4

Row | SMILES | Number of weeks in which the growth of microorganisms lay beneath the limiting values (yeasts <10^3-4 CFU/g) [1] [weeks] | Number of weeks in which the growth of microorganisms lay beneath the limiting values (yeasts <10^3-4 CFU/g) ([1]; listed as benzisothiazolinone) | Number of weeks in which the growth of microorganisms lay beneath the limiting values (molds <10^3-4 CFU/g) [2] [week weeks] | Number of weeks in which the growth of microorganisms lay beneath the limiting values (molds <10^3-4 CFU/g) ([2]; listed as benzisothiazolinone) | Number of weeks in which the growth of microorganisms lay beneath the limiting values (bacteria <10^6 CFU/g) [3] [week weeks] | Number of weeks in which the growth of microorganisms lay beneath the limiting values (bacteria <10^6 CFU/g) ([3]; listed as benzisothiazolinone) | Number of weeks in which the growth of microorganisms remained below the limiting values (yeasts <10^3-4 CFU/g) [1] [weeks] | Number of weeks in which the growth of microorganisms remained below the limiting values (yeasts <10^3-4 CFU/g) ([1]; listed as o-phenylphenol) | Number of weeks in which the growth of microorganisms remained below the limiting values (molds <10^3-4 CFU/g) [2] [weeks] | Number of weeks in which the growth of microorganisms remained below the limiting values (molds <10^3-4 CFU/g) ([2]; listed as o-phenylphenol) | Number of weeks in which the growth of microorganisms remained below the limiting values (bacteria <10^6 CFU/g) [3] [weeks] | Number of weeks in which the growth of microorganisms remained below the limiting values (bacteria <10^6 CFU/g) ([3]; listed as o-phenylphenol)
1 | O=c1[nH]sc2ccccc12 [BIT, benzisothiazolinone] | 7 | 7 weeks (of a maximum of 10 weeks) | 1 | 1 week (of a maximum of 10 weeks) | 1 | 1 week (of a maximum of 10 weeks) | – | – | – | – | – | –
2 | Oc1ccccc1-c1ccccc1 [OPP, o-phenylphenol] | – | – | – | – | – | – | 10 | 10 weeks (of a maximum of 10 weeks) | 10 | 10 weeks (of a maximum of 10 weeks) | 2 | 2 weeks (of a maximum of 10 weeks)
